14 compounds from US20240208992A1, “MACROCYCLES AS CFTR MODULATORS” (Idorsia Pharmaceuticals Ltd, priority 2021, published 2024) can be followed below.

For this assay, the target named is human F508del-CFTR (Homo sapiens, UniProt P13569, DEL508-508). Put plainly: F508del-CFTR cell surface expression (corrector activity), DiscoveRx ß-galactosidase complementation chemiluminescence assay in recombinant U2OS cell line.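 On all read-outs here: U2OS cells co-expressing ProLink-tagged F508del-CFTR and a membrane-anchored enzyme acceptor, where more surface CFTR restores β-galactosidase activity measured by chemiluminescence.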 As to conditions: U2OS cells, 16h compound incubation; for EC50: EC50, F508del-CFTR cell surface expression, geomean of several measurements; for Emax: U2OS, in relation to the Emax of the corrector lumacaftor (=100%), arithmetic mean.
human F508del-CFTR, sequence (P13569 with tags, fused parts or gaps DEL508-508): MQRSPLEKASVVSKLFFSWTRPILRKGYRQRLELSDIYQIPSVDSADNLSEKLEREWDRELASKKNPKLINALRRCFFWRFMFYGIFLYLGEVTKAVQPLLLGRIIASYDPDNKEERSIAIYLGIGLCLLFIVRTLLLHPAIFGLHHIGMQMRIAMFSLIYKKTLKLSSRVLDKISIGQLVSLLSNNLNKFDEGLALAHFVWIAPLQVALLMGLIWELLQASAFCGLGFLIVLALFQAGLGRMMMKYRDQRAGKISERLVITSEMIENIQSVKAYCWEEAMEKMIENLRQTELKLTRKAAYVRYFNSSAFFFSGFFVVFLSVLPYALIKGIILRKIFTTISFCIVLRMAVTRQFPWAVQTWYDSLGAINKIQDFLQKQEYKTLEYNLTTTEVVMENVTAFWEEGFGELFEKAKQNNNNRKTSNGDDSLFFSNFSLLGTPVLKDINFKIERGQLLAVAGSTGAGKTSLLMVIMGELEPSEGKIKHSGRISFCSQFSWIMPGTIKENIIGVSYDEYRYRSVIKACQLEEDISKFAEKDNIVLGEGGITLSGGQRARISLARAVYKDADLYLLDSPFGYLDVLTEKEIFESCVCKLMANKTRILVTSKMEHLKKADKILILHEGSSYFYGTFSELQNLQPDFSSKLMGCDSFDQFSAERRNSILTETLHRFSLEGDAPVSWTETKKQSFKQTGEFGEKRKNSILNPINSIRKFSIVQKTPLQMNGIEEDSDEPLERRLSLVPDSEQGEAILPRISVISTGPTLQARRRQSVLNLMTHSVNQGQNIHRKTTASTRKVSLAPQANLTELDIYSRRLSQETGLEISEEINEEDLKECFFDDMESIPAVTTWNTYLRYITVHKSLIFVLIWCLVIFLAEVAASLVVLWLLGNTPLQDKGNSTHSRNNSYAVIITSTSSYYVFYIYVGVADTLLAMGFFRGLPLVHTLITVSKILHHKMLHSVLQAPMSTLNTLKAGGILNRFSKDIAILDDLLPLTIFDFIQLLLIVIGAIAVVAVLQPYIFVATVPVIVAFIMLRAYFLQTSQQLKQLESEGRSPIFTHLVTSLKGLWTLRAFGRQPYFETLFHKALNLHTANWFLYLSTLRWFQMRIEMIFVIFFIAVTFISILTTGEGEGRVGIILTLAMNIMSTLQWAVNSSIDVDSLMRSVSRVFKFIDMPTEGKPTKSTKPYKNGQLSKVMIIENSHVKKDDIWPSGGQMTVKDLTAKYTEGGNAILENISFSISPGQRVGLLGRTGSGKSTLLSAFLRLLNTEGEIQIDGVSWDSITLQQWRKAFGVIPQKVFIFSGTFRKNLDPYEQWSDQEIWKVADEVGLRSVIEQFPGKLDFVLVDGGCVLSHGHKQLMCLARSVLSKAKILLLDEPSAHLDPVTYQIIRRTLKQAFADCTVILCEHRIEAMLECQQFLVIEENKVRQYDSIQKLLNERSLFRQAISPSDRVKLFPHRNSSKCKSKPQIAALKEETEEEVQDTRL

For `Cc1cc2c3c(ccc2cn1)OC[C@@H](Cc1ccccc1)NC(=O)C1(CC(F)(F)C1)N(C)C(=O)[C@H](CC(C)C)N(C)C(=O)C[C@@H](C(=O)NCCn1nnc(C2CC2)n1)NC3=O` [Example 955, (3′S,7′S,13′R)-13′-benzyl-N-(2-(5-cyclopropyl-2H-tetrazol-2-yl)ethyl)-3,3-difluoro-7′-isobutyl-6′,9′,20′-trimethyl-1′,5′,8′,11′-tetraoxo-2′,3′,4′,5′,6′,7′,8′,9′,11′,12′,13′,14′-dodecahydro-1′H-spiro[cyclobutane-1,10′-[1]oxa[4,7,10,14]tetraazacycloheptadecino[16,17-f]isoquinoline]-3′-carboxamide], the EC50 (in general, the concentration giving half of the maximal effect) was determined as 381 nM and the Emax (usually the greatest response seen or fitted, relative to the assay's reference) was 394%.

For the compound `Cc1cc2c3c(ccc2cn1)OC[C@@H](Cc1ccccc1)NC(=O)[C@@H](CC(F)(F)F)N(C)C(=O)[C@H](CC(C)C)N(C)C(=O)C[C@@H](C(=O)NCCc1cc(C2CC2)no1)NC3=O` [Example 956, (3S,7S,10R,13R)-13-benzyl-N-(2-(3-cyclopropylisoxazol-5-yl)ethyl)-7-isobutyl-6,9,20-trimethyl-1,5,8,11-tetraoxo-10-(2,2,2-trifluoroethyl)-1,2,3,4,5,6,7,8,9,10,11,12,13,14-tetradecahydro-[1]oxa[4,7,10,14]tetraazacycloheptadecino[16,17-f]isoquinoline-3-carboxamide], the EC50 was 508 nM and the Emax came to 412%.

On to `COc1cc(CCNC(=O)[C@@H]2CC(=O)N(C)[C@@H](CC(C)C)C(=O)N(C)[C@H](CC(F)(F)F)C(=O)N[C@H](Cc3ccccc3)COc3ccc4cnc(C)cc4c3C(=O)N2)on1` [Example 957, (3S,7S,10R,13R)-13-benzyl-7-isobutyl-N-(2-(3-methoxyisoxazol-5-yl)ethyl)-6,9,20-trimethyl-1,5,8,11-tetraoxo-10-(2,2,2-trifluoroethyl)-1,2,3,4,5,6,7,8,9,10,11,12,13,14-tetradecahydro-[1]oxa[4,7,10,14]tetraazacycloheptadecino[16,17-f]isoquinoline-3-carboxamide], for which the EC50 turned out to be 192 nM and the Emax amounted to 451%.

`Cc1cc2c3c(ccc2cn1)OC[C@@H](Cc1ccccc1)NC(=O)[C@@H](CC(F)(F)F)N(C)C(=O)[C@H](CC(C)C)N(C)C(=O)C[C@@H](C(=O)NCCc1cc(C2CC2)on1)NC3=O` [Example 958, (3S,7S,10R,13R)-13-benzyl-N-(2-(5-cyclopropylisoxazol-3-yl)ethyl)-7-isobutyl-6,9,20-trimethyl-1,5,8,11-tetraoxo-10-(2,2,2-trifluoroethyl)-1,2,3,4,5,6,7,8,9,10,11,12,13,14-tetradecahydro-[1]oxa[4,7,10,14]tetraazacycloheptadecino[16,17-f]isoquinoline-3-carboxamide]: the EC50 worked out at 338 nM and the Emax turned out to be 439%.

In the case of `Cc1cc2c3c(ccc2cn1)OC[C@@H](Cc1ccccc1)NC(=O)[C@@H](CC(F)(F)F)N(C)C(=O)[C@H](CC(C)C)N(C)C(=O)C[C@@H](C(=O)NCCn1nnc(C2CC2)n1)NC3=O` [Example 959, (3S,7S,10R,13R)-13-benzyl-N-(2-(5-cyclopropyl-2H-tetrazol-2-yl)ethyl)-7-isobutyl-6,9,20-trimethyl-1,5,8,11-tetraoxo-10-(2,2,2-trifluoroethyl)-1,2,3,4,5,6,7,8,9,10,11,12,13,14-tetradecahydro-[1]oxa[4,7,10,14]tetraazacycloheptadecino[16,17-f]isoquinoline-3-carboxamide], the EC50 was 222 nM and the Emax was 413%.

On to `COc1noc(CCNC(=O)[C@@H]2CC(=O)N(C)[C@@H](CC(C)C)C(=O)N(C)[C@H](CC(F)(F)F)C(=O)N[C@H](Cc3ccccc3)COc3ccc4cnc(C)cc4c3C(=O)N2)c1F` [Example 960, (3S,7S,10R,13R)-13-benzyl-N-(2-(4-fluoro-3-methoxyisoxazol-5-yl)ethyl)-7-isobutyl-6,9,20-trimethyl-1,5,8,11-tetraoxo-10-(2,2,2-trifluoroethyl)-1,2,3,4,5,6,7,8,9,10,11,12,13,14-tetradecahydro-[1]oxa[4,7,10,14]tetraazacycloheptadecino[16,17-f]isoquinoline-3-carboxamide], for which the EC50 amounted to 85 nM and the Emax was determined as 507%.

Take `COCCn1cc(CCNC(=O)[C@@H]2CC(=O)N(C)[C@@H](CC(C)C)C(=O)N(C)[C@H](Cc3nc(C(F)(F)F)no3)C(=O)N[C@H](Cc3ccccc3)COc3cc(C)nc(OC)c3C(=O)N2)cn1` [Example 961, (3R,6R,9S,13S)-3-benzyl-9-isobutyl-16-methoxy-N-(2-(1-(2-methoxyethyl)-1H-pyrazol-4-yl)ethyl)-7,10,18-trimethyl-5,8,11,15-tetraoxo-6-((3-(trifluoromethyl)-1,2,4-oxadiazol-5-yl)methyl)-2,3,4,5,6,7,8,9,10,11,12,13,14,15-tetradecahydropyrido[3,4-p][1]oxa[4,7,10,14]tetraazacycloheptadecine-13-carboxamide]: the EC50 was 353 nM and the maximum response (Emax) worked out at 453%.

Turning to `COCCn1cc(CCNC(=O)[C@@H]2CC(=O)N(C)[C@@H](CC(C)C)C(=O)N(C)[C@H](Cc3nc(C(F)(F)F)no3)C(=O)N[C@H](Cc3ccccc3)COc3ccc4ncc(F)cc4c3C(=O)N2)cn1` [Example 962, (3S,7S,10R,13R)-13-benzyl-20-fluoro-7-isobutyl-N-(2-(1-(2-methoxyethyl)-1H-pyrazol-4-yl)ethyl)-6,9-dimethyl-1,5,8,11-tetraoxo-10-((3-(trifluoromethyl)-1,2,4-oxadiazol-5-yl)methyl)-1,2,3,4,5,6,7,8,9,10,11,12,13,14-tetradecahydro-[1]oxa[4,7,10,14]tetraazacycloheptadecino[16,17-f]quinoline-3-carboxamide], the EC50 came to 103 nM and the Emax was 453%.

Consider `COc1noc(CCNC(=O)[C@@H]2CC(=O)N(C)[C@@H](CC(C)C)C(=O)N(C)C3(CC3)C(=O)N[C@H](Cc3ccccc3)COc3ccc4ncc(F)cc4c3C(=O)N2)c1F` [Example 963, (3′S,7′S,13′R)-13′-benzyl-20′-fluoro-N-(2-(4-fluoro-3-methoxyisoxazol-5-yl)ethyl)-7′-isobutyl-6′,9′-dimethyl-1′,5′,8′,11′-tetraoxo-2′,3′,4′,5′,6′,7′,8′,9′,11′,12′,13′,14′-dodecahydro-1′H-spiro[cyclopropane-1,10′-[1]oxa[4,7,10,14]tetraazacycloheptadecino[16,17-f]quinoline]-3′-carboxamide], for which the EC50 came out at 267 nM and the Emax amounted to 447%.

`CC(C)C[C@H]1C(=O)N(C)[C@H](Cc2nc(C(F)(F)F)no2)C(=O)N[C@H](Cc2ccccc2)COc2ccc3ncc(F)cc3c2C(=O)N[C@H](C(=O)NCCc2nc(C3CC3)no2)CC(=O)N1C` [Example 964, (3S,7S,10R,13R)-13-benzyl-N-(2-(3-cyclopropyl-1,2,4-oxadiazol-5-yl)ethyl)-20-fluoro-7-isobutyl-6,9-dimethyl-1,5,8,11-tetraoxo-10-((3-(trifluoromethyl)-1,2,4-oxadiazol-5-yl)methyl)-1,2,3,4,5,6,7,8,9,10,11,12,13,14-tetradecahydro-[1]oxa[4,7,10,14]tetraazacycloheptadecino[16,17-f]quinoline-3-carboxamide]: the 50% effective concentration (EC50) turned out to be 21 nM and the Emax worked out at 418%.

In the case of `Cc1cc(CCNC(=O)[C@@H]2CC(=O)N(C)[C@@H](CC(C)C)C(=O)N(C)[C@H](Cc3nc(C(F)(F)F)no3)C(=O)N[C@H](Cc3ccccc3)COc3ccc4ncc(F)cc4c3C(=O)N2)on1` [Example 965, (3S,7S,10R,13R)-13-benzyl-20-fluoro-7-isobutyl-6,9-dimethyl-N-(2-(3-methylisoxazol-5-yl)ethyl)-1,5,8,11-tetraoxo-10-((3-(trifluoromethyl)-1,2,4-oxadiazol-5-yl)methyl)-1,2,3,4,5,6,7,8,9,10,11,12,13,14-tetradecahydro-[1]oxa[4,7,10,14]tetraazacycloheptadecino[16,17-f]quinoline-3-carboxamide], the EC50 amounted to 32 nM and the Emax was found to be 453%.

As to `CC(C)C[C@H]1C(=O)N(C)[C@H](Cc2nc(C(F)(F)F)no2)C(=O)N[C@H](Cc2ccccc2)COc2ccc3ncc(F)cc3c2C(=O)N[C@H](C(=O)NC[C@@H](O)c2nc(C3CC3)no2)CC(=O)N1C` [Example 966, (3S,7S,10R,13R)-13-benzyl-N-((R)-2-(3-cyclopropyl-1,2,4-oxadiazol-5-yl)-2-hydroxyethyl)-20-fluoro-7-isobutyl-6,9-dimethyl-1,5,8,11-tetraoxo-10-((3-(trifluoromethyl)-1,2,4-oxadiazol-5-yl)methyl)-1,2,3,4,5,6,7,8,9,10,11,12,13,14-tetradecahydro-[1]oxa[4,7,10,14]tetraazacycloheptadecino[16,17-f]quinoline-3-carboxamide], the EC50 was 82 nM and the Emax was found to be 404%.

On to `COc1noc(CCNC(=O)[C@@H]2CC(=O)N(C)[C@@H](CC(C)C)C(=O)N(C)[C@H](CC(F)F)C(=O)N[C@H](Cc3ccccc3)COc3ccc4ncc(F)cc4c3C(=O)N2)c1F` [Example 967, (3S,7S,10R,13R)-13-benzyl-10-(2,2-difluoroethyl)-20-fluoro-N-(2-(4-fluoro-3-methoxyisoxazol-5-yl)ethyl)-7-isobutyl-6,9-dimethyl-1,5,8,11-tetraoxo-1,2,3,4,5,6,7,8,9,10,11,12,13,14-tetradecahydro-[1]oxa[4,7,10,14]tetraazacycloheptadecino[16,17-f]quinoline-3-carboxamide], for which the EC50 worked out at 92 nM and the Emax amounted to 472%.

`COc1noc(CCNC(=O)[C@@H]2CC(=O)N(C)[C@@H](CC(C)C)C(=O)N(C)[C@H](CC(F)F)C(=O)N[C@H](Cc3ccccc3)COc3cc(C)nc(OC)c3C(=O)N2)c1F` [Example 968, (3R,6R,9S,13S)-3-benzyl-6-(2,2-difluoroethyl)-N-(2-(4-fluoro-3-methoxyisoxazol-5-yl)ethyl)-9-isobutyl-16-methoxy-7,10,18-trimethyl-5,8,11,15-tetraoxo-2,3,4,5,6,7,8,9,10,11,12,13,14,15-tetradecahydropyrido[3,4-p][1]oxa[4,7,10,14]tetraazacycloheptadecine-13-carboxamide]: the EC50 was 226 nM and the Emax is 478%.
